Reference: patent publication US7332476B2, “Pyridyl substituted ketolide antibiotics” (Novartis AG, priority 2003, dated 2008)

Columns and labels:
Assay in all cases: MIC, broth microdilution (NCCLS)
[1] = system: Haemophilus influenzae Hain_2762; format: cell-based; conditions: in µg/mL (unit assumed); for MIC: Table 10, Strain ID L (Table 8): Haemophilus influenzae Hain_2762
Method in brief: (§1)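 NCCLS broth microdilution, inoculum 3×10^5–7×10^5 CFU/ml, 2-fold drug dilutions; CAMHB for staphylococci and enterococci, Haemophilus Test Medium for H. influenzae. Incubated 35 °C for 18-24 hours, ambient air or 5-10% CO2 for H. influenzae; MIC is lowest concentration preventing visible growth.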

[2] = system: Haemophilus influenzae Hain_960820544-3; format: cell-based; conditions: in µg/mL (unit assumed); for MIC: Table 10, Strain ID J (Table 8): Haemophilus influenzae Hain_960820544-3
Method in brief: as §1

[3] = system: Enterococcus faecalis Enfa_bc 11148-2; format: cell-based; conditions: in µg/mL (unit assumed); for MIC: Table 10, Strain ID F (Table 8): Enterococcus faecalis Enfa_bc 11148-2
Method in brief: as §1

[4] = system: Staphylococcus aureus Stau_33591; format: cell-based; conditions: unit assumed; for MIC: Table 10, Strain ID B (Table 8): Staphylococcus aureus Stau_33591
Method in brief: as §1

[5] = system: Haemophilus influenzae Hain_953460299-3; format: cell-based; conditions: in µg/mL (unit assumed); for MIC: Table 10, Strain ID K (Table 8): Haemophilus influenzae Hain_953460299-3
Method in brief: as §1

[6] = system: Haemophilus influenzae Hain_960730503-3; format: cell-based; conditions: in µg/mL (unit assumed); for MIC: Table 10, Strain ID I (Table 8): Haemophilus influenzae Hain_960730503-3
Method in brief: as §1

[7] = system: Streptococcus pneumoniae Stpn_49619; format: cell-based; parameters: MIC, strain ID M: unit not given beside the values; conditions: for MIC: Table 10, Strain ID M (Table 8): Streptococcus pneumoniae Stpn_49619
Method in brief: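 NCCLS broth microdilution with 2-fold serial drug dilutions (methanol stocks diluted in water); inoculum 3×10^5–7×10^5 CFU/ml in CAMHB, with 2-5% lysed horse blood for S. pneumoniae. Incubation 18-24 h at 35° C., ambient air, except S. pneumoniae (5-10% CO2). MIC is lowest concentration preventing visible growth.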

[8] = system: S. pneumoniae Stpn_Erm 6849; format: cell-based, Streptococcus pneumoniae; conditions: strain ID P; broth microdilution; in µg/mL (unit assumed)
Method in brief: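 S. pneumoniae MIC by NCCLS broth microdilution in cation-adjusted Mueller-Hinton broth with 2-5% lysed horse blood, inoculum 3×10^5–7×10^5 CFU/ml, 2-fold drug dilutions. Incubated 18-24 hours at 35° C. in 5-10% CO2; MIC is lowest concentration preventing visible growth.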

| Structure (SMILES) | MIC [1] | MIC, strain ID L ([1]; strain ID L, broth microdilution) | MIC [2] | MIC, strain ID J ([2]; strain ID J, broth microdilution) | MIC [3] | MIC, strain ID F ([3]; strain ID F, broth microdilution) | MIC [4] | MIC, strain ID B ([4]; strain ID B, broth microdilution) | MIC [5] | MIC, strain ID K ([5]; strain ID K, broth microdilution) | MIC [6] | MIC, strain ID I ([6]; strain ID I, broth microdilution) | MIC [7] | MIC, strain ID M ([7]; strain ID M, broth microdilution) | MIC, strain ID P [8] |
| --- | --- | --- | --- | --- | --- | --- | --- | --- | --- | --- | --- | --- | --- | --- | --- |
| CC[C@H]1OC(=O)[C@H](C)C(=O)[C@H](C)[C@@H](O[C@@H]2O[C@H](C)C[C@H](N(C)C)[C@H]2O)[C@](C)(OC)C[C@@H](C)C(=O)[C@H](C)[C@H]2N(CCCCn3cnc(-c4cccnc4)c3)C(=O)O[C@]12C [Telithromycin, telithromycin, reference compound] | 0.78-1.56 | 0.78-1.56 | 3.13-6.25 | 3.13-6.25 | 0.4-0.78 | 0.4-0.78 | > 50 µg/mL | > 50 µg/mL | 3.13-6.25 | 3.13-6.25 | 3.13-6.25 | 3.13-6.25 | =0.05 | =0.05 | 0.2-0.78 |
| CC[C@H]1OC(=O)[C@@](C)(F)C(=O)[C@H](C)[C@@H](OC2O[C@H](C)C[C@H](N(C)C)[C@H]2O)[C@@](C)(OC)C[C@@H](C)C(=O)[C@H](C)[C@H]2N(CCCCn3cnc(-c4ccc(C)nc4)c3)C(=O)O[C@]12CC (stereo partly drawn) [XIV] | 1.56 |  | 6.25 |  | 1.56 |  | > 50 µg/mL |  | 6.25 |  | 6.25 |  | =0.05 |  |  |
| C=C[C@]12OC(=O)N(CCCCn3cnc(-c4ccc(OC)nc4)c3)[C@@H]1[C@@H](C)C(=O)[C@H](C)C[C@](C)(OC)[C@H](OC1O[C@H](C)C[C@H](N(C)C)[C@H]1O)[C@@H](C)C(=O)[C@@H](C)C(=O)O[C@@H]2CC (stereo partly drawn) [XVIII] | 1.56 |  | 6.25 |  | 0.78 |  | > 50 µg/mL |  | 6.25 |  | 6.25 |  | =0.05 |  |  |
| C=C[C@]12OC(=O)N(CCCCn3cnc(-c4ccc(C)nc4)c3)[C@@H]1[C@@H](C)C(=O)[C@H](C)C[C@](C)(OC)[C@H](OC1O[C@H](C)C[C@H](N(C)C)[C@H]1O)[C@@H](C)C(=O)[C@@H](C)C(=O)O[C@@H]2CC (stereo partly drawn) [XVI] | 1.56 |  | 6.25 |  | 0.78 |  | > 50 µg/mL |  | 6.25 |  | 6.25 |  | =0.05 |  |  |
